ChEMBL document CHEMBL1157928, “Discovery and structural optimization of pyrazole derivatives as novel inhibitors of Cdc25B” (Bioorg Med Chem Lett, 2010)
One block for each molecule: values may come before it.

Tests used:
[1] = target: T1, M-phase inducer phosphatase 2 (Homo sapiens, UniProt P30305); test: Inhibition of CDC25B
T1 sequence (P30305 whole entry): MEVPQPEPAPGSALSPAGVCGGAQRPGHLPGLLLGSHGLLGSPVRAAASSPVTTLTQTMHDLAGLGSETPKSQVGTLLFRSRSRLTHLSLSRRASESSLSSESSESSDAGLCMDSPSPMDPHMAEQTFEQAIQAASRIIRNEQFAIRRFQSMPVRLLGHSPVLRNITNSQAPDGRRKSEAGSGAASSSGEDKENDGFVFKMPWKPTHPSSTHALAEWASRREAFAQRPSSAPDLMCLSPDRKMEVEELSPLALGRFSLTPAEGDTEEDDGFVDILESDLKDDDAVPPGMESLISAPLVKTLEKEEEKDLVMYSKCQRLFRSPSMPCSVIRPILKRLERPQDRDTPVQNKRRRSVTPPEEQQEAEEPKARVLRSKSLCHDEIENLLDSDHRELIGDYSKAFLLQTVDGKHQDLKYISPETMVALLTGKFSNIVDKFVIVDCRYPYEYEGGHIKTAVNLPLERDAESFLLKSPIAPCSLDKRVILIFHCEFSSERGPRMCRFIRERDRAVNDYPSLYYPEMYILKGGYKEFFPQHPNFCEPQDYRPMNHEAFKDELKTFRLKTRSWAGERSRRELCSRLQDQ

[2] = target: Receptor-type tyrosine-protein phosphatase F (Homo sapiens, UniProt P10586); test: Inhibition of PTP-LAR
Receptor-type tyrosine-protein phosphatase F, sequence (P10586 whole entry): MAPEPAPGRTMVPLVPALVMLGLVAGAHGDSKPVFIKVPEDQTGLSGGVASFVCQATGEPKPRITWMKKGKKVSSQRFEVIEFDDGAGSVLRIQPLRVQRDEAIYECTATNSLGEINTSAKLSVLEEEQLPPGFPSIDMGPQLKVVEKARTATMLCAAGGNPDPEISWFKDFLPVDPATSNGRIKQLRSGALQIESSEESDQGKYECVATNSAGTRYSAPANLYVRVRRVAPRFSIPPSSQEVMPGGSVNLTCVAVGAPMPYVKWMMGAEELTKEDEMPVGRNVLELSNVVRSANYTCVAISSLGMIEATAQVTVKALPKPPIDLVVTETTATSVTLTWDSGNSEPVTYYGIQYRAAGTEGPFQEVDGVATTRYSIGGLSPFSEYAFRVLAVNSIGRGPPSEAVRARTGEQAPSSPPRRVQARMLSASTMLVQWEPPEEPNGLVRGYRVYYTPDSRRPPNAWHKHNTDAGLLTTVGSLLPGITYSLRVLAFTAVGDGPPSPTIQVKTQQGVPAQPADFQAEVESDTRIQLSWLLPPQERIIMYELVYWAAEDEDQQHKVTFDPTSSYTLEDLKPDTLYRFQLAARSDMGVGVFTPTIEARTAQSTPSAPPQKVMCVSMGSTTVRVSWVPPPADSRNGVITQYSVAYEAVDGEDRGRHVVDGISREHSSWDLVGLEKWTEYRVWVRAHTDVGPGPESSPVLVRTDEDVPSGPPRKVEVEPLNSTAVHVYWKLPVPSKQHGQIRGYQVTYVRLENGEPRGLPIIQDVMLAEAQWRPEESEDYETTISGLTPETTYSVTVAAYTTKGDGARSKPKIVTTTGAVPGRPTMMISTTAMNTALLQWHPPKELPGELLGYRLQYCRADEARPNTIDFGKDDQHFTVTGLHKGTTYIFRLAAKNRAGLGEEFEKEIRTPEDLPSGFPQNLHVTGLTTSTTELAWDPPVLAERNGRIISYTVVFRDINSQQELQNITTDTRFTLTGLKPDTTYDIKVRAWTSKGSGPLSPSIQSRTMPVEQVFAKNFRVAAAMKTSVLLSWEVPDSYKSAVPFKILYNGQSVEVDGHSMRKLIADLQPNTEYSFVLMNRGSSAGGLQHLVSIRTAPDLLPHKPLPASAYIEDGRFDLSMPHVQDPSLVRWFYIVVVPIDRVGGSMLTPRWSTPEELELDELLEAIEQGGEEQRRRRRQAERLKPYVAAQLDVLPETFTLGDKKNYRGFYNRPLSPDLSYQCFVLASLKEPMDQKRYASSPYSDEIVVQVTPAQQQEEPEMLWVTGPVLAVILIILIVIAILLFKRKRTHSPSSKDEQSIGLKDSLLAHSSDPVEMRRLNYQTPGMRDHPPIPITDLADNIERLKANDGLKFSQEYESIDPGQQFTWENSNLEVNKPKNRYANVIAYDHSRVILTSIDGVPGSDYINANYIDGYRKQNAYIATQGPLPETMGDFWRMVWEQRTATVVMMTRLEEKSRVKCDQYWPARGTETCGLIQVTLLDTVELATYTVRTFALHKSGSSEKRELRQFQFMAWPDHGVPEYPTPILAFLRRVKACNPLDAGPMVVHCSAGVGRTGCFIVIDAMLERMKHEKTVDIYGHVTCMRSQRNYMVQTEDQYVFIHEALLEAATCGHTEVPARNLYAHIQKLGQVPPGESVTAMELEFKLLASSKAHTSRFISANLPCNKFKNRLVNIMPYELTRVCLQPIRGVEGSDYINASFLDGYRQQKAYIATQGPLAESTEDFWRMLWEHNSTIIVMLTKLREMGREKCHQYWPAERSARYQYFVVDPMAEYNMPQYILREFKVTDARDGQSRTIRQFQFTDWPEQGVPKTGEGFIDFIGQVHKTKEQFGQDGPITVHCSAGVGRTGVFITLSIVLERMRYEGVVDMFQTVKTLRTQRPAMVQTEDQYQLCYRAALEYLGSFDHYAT

[3] = target: T2, Tyrosine-protein phosphatase non-receptor type 11 (Homo sapiens, UniProt Q06124); test: Inhibition of SHP2
T2 sequence (Q06124 whole entry): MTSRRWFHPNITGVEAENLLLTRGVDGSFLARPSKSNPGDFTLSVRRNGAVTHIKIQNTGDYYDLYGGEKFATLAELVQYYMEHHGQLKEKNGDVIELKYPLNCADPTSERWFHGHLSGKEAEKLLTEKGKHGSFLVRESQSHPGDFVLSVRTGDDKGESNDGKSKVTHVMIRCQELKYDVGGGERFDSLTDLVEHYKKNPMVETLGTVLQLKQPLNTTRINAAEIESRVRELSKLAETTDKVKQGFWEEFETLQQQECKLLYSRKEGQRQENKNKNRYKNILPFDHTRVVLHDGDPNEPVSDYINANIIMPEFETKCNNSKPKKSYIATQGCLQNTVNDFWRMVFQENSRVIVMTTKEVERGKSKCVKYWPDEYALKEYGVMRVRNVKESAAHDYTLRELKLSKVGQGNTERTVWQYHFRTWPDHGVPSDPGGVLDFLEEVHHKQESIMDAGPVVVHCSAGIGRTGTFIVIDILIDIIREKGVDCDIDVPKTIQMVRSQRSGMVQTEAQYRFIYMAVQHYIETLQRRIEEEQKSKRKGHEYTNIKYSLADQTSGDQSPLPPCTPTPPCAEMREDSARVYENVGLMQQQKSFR

[4] = target: T3, Tyrosine-protein phosphatase non-receptor type 2 (Homo sapiens, UniProt P17706); test: Inhibition of TCPTP
T3 sequence (P17706 whole entry): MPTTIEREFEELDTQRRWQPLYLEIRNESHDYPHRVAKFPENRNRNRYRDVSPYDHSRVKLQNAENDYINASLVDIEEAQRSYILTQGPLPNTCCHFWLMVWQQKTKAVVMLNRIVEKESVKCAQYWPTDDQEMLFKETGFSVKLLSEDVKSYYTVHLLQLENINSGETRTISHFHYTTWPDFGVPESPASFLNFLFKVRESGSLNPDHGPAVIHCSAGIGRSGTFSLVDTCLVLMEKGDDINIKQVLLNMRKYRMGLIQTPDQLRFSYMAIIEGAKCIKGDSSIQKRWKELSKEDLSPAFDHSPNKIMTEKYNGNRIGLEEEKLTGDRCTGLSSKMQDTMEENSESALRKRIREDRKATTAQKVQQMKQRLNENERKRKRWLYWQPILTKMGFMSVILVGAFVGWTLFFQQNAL

[5] = target: Tyrosine-protein phosphatase non-receptor type 6 (Homo sapiens, UniProt P29350); test: Inhibition of SHP1
Tyrosine-protein phosphatase non-receptor type 6, sequence (P29350 whole entry): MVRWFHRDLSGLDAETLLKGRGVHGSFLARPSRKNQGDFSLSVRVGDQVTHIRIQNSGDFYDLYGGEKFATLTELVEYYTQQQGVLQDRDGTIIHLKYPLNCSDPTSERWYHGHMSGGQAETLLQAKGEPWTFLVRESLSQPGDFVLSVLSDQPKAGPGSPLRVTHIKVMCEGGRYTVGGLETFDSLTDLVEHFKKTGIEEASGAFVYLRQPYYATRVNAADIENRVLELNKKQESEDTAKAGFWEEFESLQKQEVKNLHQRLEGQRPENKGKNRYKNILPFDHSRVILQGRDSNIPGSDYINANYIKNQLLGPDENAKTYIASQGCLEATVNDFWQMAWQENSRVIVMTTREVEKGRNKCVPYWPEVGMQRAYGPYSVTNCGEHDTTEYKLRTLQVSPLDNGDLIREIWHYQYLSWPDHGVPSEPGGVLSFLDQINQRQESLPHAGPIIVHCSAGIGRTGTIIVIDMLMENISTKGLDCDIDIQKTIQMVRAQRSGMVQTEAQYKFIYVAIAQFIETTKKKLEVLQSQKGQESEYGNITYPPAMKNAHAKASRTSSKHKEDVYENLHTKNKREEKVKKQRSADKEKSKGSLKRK

[6] = target: T4, Tyrosine-protein phosphatase non-receptor type 1 (Homo sapiens, UniProt P18031); test: Inhibition of PTP1B
T4 sequence (P18031 whole entry): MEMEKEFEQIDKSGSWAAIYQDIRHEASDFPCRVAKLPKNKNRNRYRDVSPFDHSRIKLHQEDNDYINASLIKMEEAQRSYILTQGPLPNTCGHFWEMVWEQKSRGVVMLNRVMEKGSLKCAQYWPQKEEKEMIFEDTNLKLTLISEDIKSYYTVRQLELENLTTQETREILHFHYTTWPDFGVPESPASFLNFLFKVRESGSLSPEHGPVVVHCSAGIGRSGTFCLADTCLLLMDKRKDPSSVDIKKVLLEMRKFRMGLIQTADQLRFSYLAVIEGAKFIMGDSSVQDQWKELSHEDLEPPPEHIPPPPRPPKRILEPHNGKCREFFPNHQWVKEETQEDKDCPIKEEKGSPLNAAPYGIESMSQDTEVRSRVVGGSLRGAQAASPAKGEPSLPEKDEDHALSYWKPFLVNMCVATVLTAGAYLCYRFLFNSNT

IC50 [1]: Not Active
SMILES: CCOC(=O)c1n[nH]c2c1C(=O)N(c1ccccc1C(=O)OC)C2=O

IC50 [1]: Not Active
SMILES: CCOC(=O)c1n[nH]c2c1C(=O)N(c1cccc([N+](=O)[O-])c1)C2=O

IC50 ([1]; read-out: IC50): 730 nM
SMILES: CCCCCCCCCCCCCCCCCC(=O)c1n[nH]c2c1C(=O)N(Cc1ccccc1)C2=O

IC50 [1]: Not Active
SMILES: CCOC(=O)c1n[nH]c2c1C(=O)N(c1cccc(Br)c1)C2=O

IC50 [1]: Not Active
SMILES: CCOC(=O)c1n[nH]c2c1C(=O)N(c1ccccc1OC)C2=O

IC50 ([1]; read-out: IC50): 540 nM
SMILES: CCCCCCCCCCCCCCCCCC(=O)c1n[nH]c2c1C(=O)N(c1ccc(OC)cc1)C2=O

IC50 ([1]; read-out: IC50): 540 nM
SMILES: CCCCCCCCCCCCCCCCCC(=O)c1n[nH]c2c1C(=O)N(c1ccc(F)cc1)C2=O

IC50 [1]: Not Active
SMILES: CCOC(=O)c1n[nH]c2c1C(=O)N(c1ccccc1Cl)C2=O

IC50 [1]: Not Active
SMILES: CCOC(=O)c1n[nH]c2c1C(=O)N(c1ccc(F)cc1)C2=O

IC50 ([1]; read-out: IC50): 170 nM
SMILES: CCCCCCCCCCCCCCCCCC(=O)c1n[nH]c2c1C(=O)N(c1ccc(Cl)cc1)C2=O

IC50 ([1]; read-out: IC50): 2130 nM
SMILES: CCCCCCCCCCCCCCCCCC(=O)c1n[nH]c2c1C(=O)N(c1ccccc1C)C2=O

IC50 ([1]; read-out: IC50): 450 nM
SMILES: CCCCCCCCCCCCCCCCCC(=O)c1n[nH]c2c1C(=O)N(c1ccccc1F)C2=O

IC50 ([1]; read-out: IC50): 1150 nM
SMILES: CCCCCCCCCCCCCCCCCC(=O)c1n[nH]c2c1C(=O)N(c1ccc(F)c(Cl)c1)C2=O

IC50 [2]: Not Active
IC50 [3]: Not Active
IC50 ([4]; read-out: IC50): 18700 nM
IC50 [5]: Not Active
IC50 ([1]; read-out: IC50): 5080 nM
IC50 ([6]; read-out: IC50): 7490 nM
SMILES: CCCCCCCCCCCCCCCCCC(=O)c1cc(C(=O)Nc2ccccc2C(=O)OC)[nH]n1

IC50 ([1]; read-out: IC50): 2080 nM
SMILES: CCCCCCCCCCCCCCCCCC(=O)c1n[nH]c2c1C(=O)N(Cc1ccc(F)cc1)C2=O

IC50 [1]: Not Active
SMILES: CCOC(=O)c1n[nH]c2c1C(=O)N(c1cccc(F)c1)C2=O

IC50 ([1]; read-out: IC50): 2600 nM
SMILES: CCCCCCCCCCCCCCCCCC(=O)c1n[nH]c2c1C(=O)N(c1cccc(C)c1)C2=O

IC50 ([1]; read-out: IC50): 2920 nM
SMILES: CCCCCCCCCCCCCCCCCC(=O)c1n[nH]c2c1C(=O)N(C1CCCCC1)C2=O

IC50 [1]: Not Active
SMILES: CCOC(=O)c1n[nH]c2c1C(=O)N(c1ccccc1F)C2=O

IC50 ([1]; read-out: IC50): 240 nM
SMILES: CCCCCCCCCCCCCCCCCC(=O)c1n[nH]c2c1C(=O)N(c1cccc(Cl)c1)C2=O

IC50 ([1]; read-out: IC50): 1390 nM
SMILES: CCCCCCCCCC(=O)c1n[nH]c2c1C(=O)N(c1ccc([N+](=O)[O-])cc1)C2=O

IC50 ([1]; read-out: IC50): 400 nM
SMILES: CCCCCCCCCCCCCCCCCC(=O)c1n[nH]c2c1C(=O)N(c1ccc([N+](=O)[O-])cc1)C2=O

More lines, now with the values behind:

SMILES: CCCCCCCCCCCCCCCCCC(=O)c1n[nH]c2c1C(=O)N(c1cccc([N+](=O)[O-])c1)C2=O
IC50 ([1]; read-out: IC50): 1110 nM

SMILES: CCOC(=O)c1n[nH]c2c1C(=O)N(c1ccc(Cl)cc1)C2=O
IC50 ([1]; read-out: IC50): 37400 nM

SMILES: CCCCCCCCCCCCCCCCCC(=O)c1n[nH]c2c1C(=O)N(c1ccc(Br)cc1)C2=O
IC50 ([1]; read-out: IC50): 960 nM

SMILES: CCOC(=O)c1n[nH]c2c1C(=O)N(c1ccc([N+](=O)[O-])cc1)C2=O
IC50 [2]: Not Active
IC50 [3]: Not Active
IC50 [4]: Not Active
IC50 [5]: Not Active
IC50 ([1]; read-out: IC50): 31900 nM
IC50 [6]: Not Active

SMILES: CCCCCCCCCCCCCCCCCC(=O)c1n[nH]c2c1C(=O)N(c1cccc(OC)c1)C2=O
IC50 ([1]; read-out: IC50): 520 nM

SMILES: CCOC(=O)c1n[nH]c2c1C(=O)N(c1ccccc1Br)C2=O
IC50 [1]: Not Active

SMILES: CCCCCCCCCCCCCCCCCC(=O)c1n[nH]c2c1C(=O)N(c1cccc3ccccc13)C2=O
IC50 ([1]; read-out: IC50): 310 nM

SMILES: CCCCCCCCCCCCCCCCCC(=O)c1n[nH]c2c1C(=O)N(c1ccccc1)C2=O
IC50 [2]: Not Active
IC50 ([3]; read-out: IC50): 9590 nM
IC50 ([4]; read-out: IC50): 3310 nM
IC50 [5]: Not Active
IC50 ([1]; read-out: IC50): 230 nM
IC50 ([6]; read-out: IC50): 1560 nM

SMILES: CCCCCCCCCCCCCC(=O)c1n[nH]c2c1C(=O)N(c1ccc([N+](=O)[O-])cc1)C2=O
IC50 ([1]; read-out: IC50): 500 nM

SMILES: CCCCCCCCCCCCCCCCCC(=O)c1n[nH]c2c1C(=O)N(c1ccccc1C(F)(F)F)C2=O
IC50 ([1]; read-out: IC50): 320 nM

SMILES: CCCCCCCCCCCCCCCCCC(=O)c1n[nH]c2c1C(=O)N(c1cccc(F)c1)C2=O
IC50 ([1]; read-out: IC50): 1470 nM

SMILES: CCCCCCCCCCCCCCCCCC(=O)c1n[nH]c2c1C(=O)N(c1ccccc1C(=O)OC)C2=O
IC50 ([1]; read-out: IC50): 410 nM

SMILES: CCCCCCCCCCCCCCCCCC(=O)c1cc(C(=O)Nc2ccsc2C(=O)OC)[nH]n1
IC50 [2]: Not Active
IC50 [3]: Not Active
IC50 ([4]; read-out: IC50): 18600 nM
IC50 [5]: Not Active
IC50 ([1]; read-out: IC50): 3360 nM
IC50 ([6]; read-out: IC50): 7160 nM

SMILES: CCCCCCCCCCCCCCCCCC(=O)c1cc(C(=O)Nc2ccsc2C(=O)O)[nH]n1
IC50 [2]: Not Active
IC50 ([3]; read-out: IC50): 12200 nM
IC50 ([4]; read-out: IC50): 1160 nM
IC50 ([5]; read-out: IC50): 9790 nM
IC50 ([1]; read-out: IC50): 120 nM
IC50 ([6]; read-out: IC50): 410 nM

SMILES: O=C(c1ccccc1)c1n[nH]c2c1C(=O)N(c1ccc([N+](=O)[O-])cc1)C2=O
IC50 [1]: Not Active

SMILES: CCOC(=O)c1n[nH]c2c1C(=O)N(c1ccc(OC)cc1)C2=O
IC50 [1]: Not Active

SMILES: CCCCCCCCCCCCCCCCCC(=O)c1n[nH]c2c1C(=O)N(c1ccc(C(=O)OC)cc1)C2=O
IC50 ([1]; read-out: IC50): 490 nM

SMILES: CCCCCCCCCCCCCCCCCC(=O)c1cc(C(=O)Nc2ccccc2C(=O)O)[nH]n1
IC50 [2]: Not Active
IC50 ([3]; read-out: IC50): 15200 nM
IC50 ([4]; read-out: IC50): 1300 nM
IC50 ([5]; read-out: IC50): 10600 nM
IC50 ([1]; read-out: IC50): 160 nM
IC50 ([6]; read-out: IC50): 350 nM

SMILES: CCCCCCCCCCCCCCCCCC(=O)c1n[nH]c2c1C(=O)N(c1cccc(Br)c1)C2=O
IC50 ([1]; read-out: IC50): 1010 nM

SMILES: CCCCCCCCCCCCCCCCCC(=O)c1nn(C)c2c1C(=O)N(c1ccccc1)C2=O
IC50 ([1]; read-out: IC50): 30000 nM

SMILES: CCCCCCCCCCCCCCCCCC(=O)c1n[nH]c2c1C(=O)N(c1ccccc1Br)C2=O
IC50 ([1]; read-out: IC50): 250 nM

SMILES: CCOC(=O)c1n[nH]c2c1C(=O)N(c1cccc(Cl)c1)C2=O
IC50 [1]: Not Active

SMILES: CCCCCCCCCCCCCCCCCC(=O)c1n[nH]c2c1C(=O)N(c1ccc(C)cc1)C2=O
IC50 ([1]; read-out: IC50): 4330 nM

SMILES: CCCCCCCCCCCCCCCCCC(=O)c1n[nH]c2c1C(=O)N(c1ccsc1C(=O)OC)C2=O
IC50 ([1]; read-out: IC50): 340 nM
